Reference: the CheMixHub viscosity set

Test: xn = mol fraction of the nth substance listed

Nc1ccccc1 + Cc1ccccc1
viscosity [mPa·s], 101 kPa
Conditions	298.15 K	303.15 K	308.15 K	313.15 K
x1 = 0.0977	0.62	0.576	0.545	0.495
x1 = 0.1155	–	–	0.5602	–
x1 = 0.116	0.5955	–	–	–
x1 = 0.198	0.701	0.653	0.615	0.57
x1 = 0.2272	0.681	–	–	–
x1 = 0.2298	–	–	0.7052	–
x1 = 0.3004	0.814	0.752	0.72	0.65
x1 = 0.3224	–	–	0.7335	–
x1 = 0.3354	0.8149	–	–	–
x1 = 0.3917	0.94	0.867	0.803	0.74
x1 = 0.4199	–	–	0.8736	–
x1 = 0.4399	0.9747	–	–	–
x1 = 0.4993	1.146	1.074	0.954	0.872
x1 = 0.5404	1.169	–	–	–
x1 = 0.5446	–	–	1.039	–
x1 = 0.6003	1.406	1.253	1.139	1.03
x1 = 0.6191	–	–	1.19	–
x1 = 0.6382	1.427	–	–	–
x1 = 0.69	–	–	1.391	–
x1 = 0.6978	1.723	1.522	1.367	1.216
x1 = 0.7815	–	–	1.647	–
x1 = 0.8009	2.199	1.907	1.696	1.486
x1 = 0.835	–	–	1.891	–
x1 = 0.8998	2.822	2.423	2.122	1.863

COCCOCCOCCO + CCOC(C)(C)C
viscosity [mPa·s], 101 kPa
Conditions	293.15 K	298.15 K	303.15 K
x2 = 0.0504	6.269	5.479	4.777
x2 = 0.1	5.458	4.8	4.209
x2 = 0.1509	4.734	4.186	3.689
x2 = 0.2025	4.101	3.643	3.225
x2 = 0.2489	3.607	3.216	2.859
x2 = 0.3007	3.129	2.801	2.501
x2 = 0.3511	2.729	2.453	2.199
x2 = 0.3999	2.394	2.159	1.944
x2 = 0.4508	2.091	1.893	1.712
x2 = 0.5001	1.837	1.669	1.516
x2 = 0.5493	1.616	1.475	1.345
x2 = 0.6	1.418	1.3	1.192
x2 = 0.6503	1.248	1.149	1.058
x2 = 0.6998	1.102	1.019	0.943
x2 = 0.7491	0.974	0.906	0.842
x2 = 0.7999	0.86	0.803	0.751
x2 = 0.8509	0.759	0.712	0.669
x2 = 0.9001	0.674	0.635	0.6
x2 = 0.9498	0.599	0.566	0.536

CCOC(=O)CCCBr + CCCCCC
303.15 K, 101 kPa
Conditions	viscosity [mPa·s]
x1 = 0.2012	0.4062
x1 = 0.3949	0.5871
x1 = 0.4988	0.7248
x1 = 0.6008	0.8853
x1 = 0.7973	1.274

Nc1ccccc1 + Cc1cccc(C)c1
303 K, 101.33 kPa
Conditions	viscosity [mPa·s]
x1 = 0.1	0.815
x1 = 0.2	1.025
x1 = 0.3	1.316
x1 = 0.4	1.708
x1 = 0.5	2.076
x1 = 0.6	2.225
x1 = 0.7	2.432
x1 = 0.8	2.675
x1 = 0.9	2.875

CC(C)(C)O + COC(C)(C)C
101.33 kPa
Conditions	viscosity [mPa·s]
303.15 K, x2 = 0.0443	2.726
303.15 K, x2 = 0.0877	2.236
303.15 K, x2 = 0.1262	1.894
303.15 K, x2 = 0.1702	1.587
303.15 K, x2 = 0.2519	1.192
303.15 K, x2 = 0.2645	1.146
303.15 K, x2 = 0.3232	0.9699
303.15 K, x2 = 0.3619	0.8794
303.15 K, x2 = 0.4504	0.7203
303.15 K, x2 = 0.5434	0.5955
303.15 K, x2 = 0.5686	0.5668
303.15 K, x2 = 0.6631	0.4759
303.15 K, x2 = 0.7872	0.3997
303.15 K, x2 = 0.8887	0.3669
303.15 K, x2 = 0.9442	0.3487
313.15 K, x2 = 0.048	1.742
313.15 K, x2 = 0.0499	1.73
313.15 K, x2 = 0.0796	1.556
313.15 K, x2 = 0.092	1.491
313.15 K, x2 = 0.1717	1.149
313.15 K, x2 = 0.2531	0.9105
313.15 K, x2 = 0.267	0.878
313.15 K, x2 = 0.3697	0.6901
313.15 K, x2 = 0.4552	0.5827
313.15 K, x2 = 0.5678	0.4803
313.15 K, x2 = 0.6723	0.4109
313.15 K, x2 = 0.7688	0.3634
313.15 K, x2 = 0.8802	0.3241
313.15 K, x2 = 0.9456	0.305

CC(C)(C)O + CCCCCC
303.2 K, 101.33 kPa
Conditions	viscosity [mPa·s]
x2 = 0.05	2.298
x2 = 0.1	1.677
x2 = 0.15	1.306
x2 = 0.2	1.052
x2 = 0.3	0.749
x2 = 0.4	0.568
x2 = 0.5	0.465
x2 = 0.6	0.41
x2 = 0.7	0.361
x2 = 0.8	0.319
x2 = 0.85	0.302
x2 = 0.9	0.289
x2 = 0.95	0.281

CC(C)(C)O + CCO
303.2 K, 101.33 kPa
Conditions	viscosity [mPa·s]
x2 = 0.05	3.256
x2 = 0.1	3.156
x2 = 0.15	3.039
x2 = 0.2	2.914
x2 = 0.3	2.645
x2 = 0.4	2.36
x2 = 0.5	2.07
x2 = 0.6	1.793
x2 = 0.7	1.548
x2 = 0.8	1.336
x2 = 0.85	1.239
x2 = 0.9	1.147
x2 = 0.95	1.059

CCNCC + CCCCOCCO
viscosity [mPa·s], 100 kPa
Conditions	298.15 K	303.15 K	308.15 K
x2 = 0.0499	0.35	0.335	0.31
x2 = 0.1001	0.417	0.391	0.368
x2 = 0.1508	0.485	0.45	0.423
x2 = 0.2001	0.561	0.523	0.492
x2 = 0.2997	0.758	0.693	0.647
x2 = 0.3995	1.028	0.933	0.865
x2 = 0.5	1.356	1.212	1.116
x2 = 0.5999	1.72	1.516	1.389
x2 = 0.7	2.083	1.832	1.673
x2 = 0.7999	2.407	2.101	1.913
x2 = 0.8997	2.662	2.319	2.1
x2 = 0.9495	2.769	2.415	2.181

CC(C)(C)O + CC(C)=O
viscosity [mPa·s], 101 kPa
Conditions	x1 = 0.0784	x1 = 0.1618	x1 = 0.2497	x1 = 0.3433	x1 = 0.4398	x1 = 0.5382	x1 = 0.6472	x1 = 0.7532	x1 = 0.8729
298.15 K	0.3321	0.3734	0.4146	0.4676	0.5414	0.6566	0.8929	1.304	2.131
303.15 K	0.324	0.3649	0.4058	0.4555	0.514	0.6108	0.8102	1.186	1.881
308.15 K	0.3158	0.3535	0.3941	0.4405	0.4928	0.583	0.7695	1.073	1.632

Nc1ccccc1 + COCCO
303.15 K, 101 kPa
Conditions	viscosity [mPa·s]
x1 = 0.0881	2.156
x1 = 0.1786	2.351
x1 = 0.2716	2.555
x1 = 0.3671	2.757
x1 = 0.4652	2.955
x1 = 0.5661	3.129
x1 = 0.67	3.284
x1 = 0.7768	3.437
x1 = 0.8867	3.591

C[NH+](CCO)CCO.O=C[O-] + CO
viscosity [mPa·s], 101 kPa
Conditions	293.15 K	303.15 K	313.15 K	323.15 K
x1 = 0.0524	26.47	15.39	6.822	4.667
x1 = 0.1066	52.08	24.58	13.12	8.99
x1 = 0.2075	103.1	49.04	26.16	17.87
x1 = 0.3137	158.6	77.7	40.82	27.89
x1 = 0.4061	207.6	102	54.12	37.05
x1 = 0.5016	259.6	126.3	68.64	47.08
x1 = 0.6339	339	163	91.65	62.82
x1 = 0.7031	388.3	187.2	106.1	72.5
x1 = 0.8195	494.6	243.3	136.4	92.04
x1 = 0.9184	618.8	307.1	167.4	111.1
x1 = 0.962	667.2	330.3	179.6	118.9

C1COCCOCCOCCOCCO1 + O
101 kPa
Conditions	viscosity [mPa·s]
293.15 K, x1 = 0.0006204	1.026
293.15 K, x1 = 0.001402	1.056
293.15 K, x1 = 0.00196	1.077
293.15 K, x1 = 0.002451	1.096
293.15 K, x1 = 0.002972	1.116
293.15 K, x1 = 0.003463	1.135
298.15 K, x1 = 0.0008458	0.9177
298.15 K, x1 = 0.001528	0.94
298.15 K, x1 = 0.002266	0.9641
298.15 K, x1 = 0.002834	0.9822
298.15 K, x1 = 0.003303	0.9976
298.15 K, x1 = 0.003773	1.013
303.15 K, x1 = 0.0006643	0.8159
303.15 K, x1 = 0.001358	0.835
303.15 K, x1 = 0.002066	0.8548
303.15 K, x1 = 0.003143	0.8854
303.15 K, x1 = 0.00351	0.8952
303.15 K, x1 = 0.003848	0.9049
308.15 K, x1 = 0.0008516	0.7393
308.15 K, x1 = 0.001375	0.7519
308.15 K, x1 = 0.001712	0.7607
308.15 K, x1 = 0.00238	0.7764
308.15 K, x1 = 0.003105	0.7938
308.15 K, x1 = 0.003675	0.8069

CC(C)(C)O + CCCCCCCC
viscosity [mPa·s], 101 kPa
Conditions	x1 = 0.8499	x1 = 0.9	x1 = 0.9235
303.15 K	–	–	2.015
313.15 K	1.075	1.275	–

COCCOCCOCCO + CCOC(=O)OCC
298.15 K, 101.33 kPa
Conditions	viscosity [mPa·s]
x1 = 0.0084	0.762
x1 = 0.017	0.775
x1 = 0.0385	0.809
x1 = 0.0758	0.874
x1 = 0.0923	0.905
x1 = 0.1232	0.967
x1 = 0.1538	1.035
x1 = 0.1917	1.126
x1 = 0.2331	1.242
x1 = 0.2893	1.408
x1 = 0.326	1.528
x1 = 0.3668	1.676
x1 = 0.41	1.845
x1 = 0.4336	1.944
x1 = 0.4506	2.027
x1 = 0.4939	2.224
x1 = 0.5117	2.316
x1 = 0.5615	2.578
x1 = 0.603	2.819
x1 = 0.676	3.303
x1 = 0.7411	3.785
x1 = 0.8077	4.364
x1 = 0.8846	5.15
x1 = 0.925	5.608
